Experimental findings from EP1115693B9, “SUBSTITUTED POLYCYCLIC ARYL AND HETEROARYL $i([sequence])-HETEROALKYLAMINES USEFUL FOR INHIBITING CHOLESTERYL ESTER [sequence] PROTEIN ACTIVITY” (Monsanto Company, priority 1998, dated 2000) are described below.

Bounds are passed on as bounds.

As usually defined, the IC50 is the concentration at which inhibition is half-maximal. Read a low IC50 as higher potency.

In test [1] the target is T1, CETP (Homo sapiens, UniProt P11597).
T1 sequence (P11597 18-493): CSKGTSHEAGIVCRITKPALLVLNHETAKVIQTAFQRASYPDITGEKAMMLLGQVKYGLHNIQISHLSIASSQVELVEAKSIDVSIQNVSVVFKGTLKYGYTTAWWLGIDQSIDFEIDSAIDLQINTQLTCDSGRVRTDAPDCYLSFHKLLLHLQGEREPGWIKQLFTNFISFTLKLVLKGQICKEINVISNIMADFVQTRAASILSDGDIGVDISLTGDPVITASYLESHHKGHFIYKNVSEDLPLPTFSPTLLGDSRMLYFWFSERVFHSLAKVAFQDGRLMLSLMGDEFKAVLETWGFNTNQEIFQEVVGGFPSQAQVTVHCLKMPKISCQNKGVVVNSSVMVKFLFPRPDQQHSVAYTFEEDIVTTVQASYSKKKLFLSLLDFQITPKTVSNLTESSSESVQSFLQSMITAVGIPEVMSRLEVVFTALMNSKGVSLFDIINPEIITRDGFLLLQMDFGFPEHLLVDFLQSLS
The test is described as follows: Assay of CETP inhibition using purified components (reconstituted buffer assay): transfer of [3H]CE from HDL to LDL. It is filed as biochemical. Also noted: made in house; host or cells: CHO cells (serum-free conditioned medium). The settings on record: 2 hours at 37°C. The method, then: ASSAY OF CETP INHIBITION USING PURIFIED COMPONENTS (RECONSTITUTED BUFFER ASSAY)
The ability of compounds to inhibit CETP activity was assessed using an in vitro assay that measured the rate of transfer of radiolabeled cholesteryl ester ([^3H]CE) from HDL donor particles to LDL acceptor particles. Details of the assay are provided by Glenn, K. C. et al. (Glenn and Melton, "Quantification of Cholesteryl Ester Transfer Protein (CETP): A) CETP Activity and B) Immunochemical Assay of CETP Protein," Meth. Enzymol., 263, 339-351 (1996)). Human recombinant CETP can be obtained from the serum-free conditioned medium of CHO cells transfected with a cDNA for CETP and purified as described by Wang, S. et al. (J. Biol. Chem. 267, 17487-17490 (1992)). To measure CETP activity, [^3H]CE-labeled-HDL, LDL, CETP and assay buffer (50 mM tris(hydroxymethyl)aminomethane, pH 7.4; 150 mM sodium chloride; 2 mM ethylenediamine-tetraacetic acid (EDTA); 1% bovine serum albumin) were incubated in a final volume of 200 µL, for 2 hours at 37°C in 96 well plates. […] The inhibitors were then diluted 1:1 with CETP in assay buffer, and then 25 µL of that solution was mixed with 175 µL of lipoprotein pool for assay. Following incubation, LDL was differentially precipitated by the addition of 50 µL of 1% (w/v) dextran sulfate/0.5 M magnesium chloride, mixed by vortex, and incubated at room temperature for 10 minutes. A potion of the solution (200 µL) was transferred to a filter plate (Millipore). After filtration, the radioactivity present in the precipitated LDL was measured by liquid scintillation counting.
This value was defined as the IC50.

Test [2] deals with T1, CETP. Kind of test: Assay of CETP inhibition in human plasma: transfer of [3H]CE from [3H]CE-HDL to VLDL and LDL. Also noted: Blood was obtained from healthy volunteers; from tissue; host or cells: pooled human EDTA plasma from healthy volunteers. It is filed as biochemical. Particulars: inhibition of transfer of [3H]CE from [3H]CE-HDL to VLDL and LDL. How it is done:
ASSAY OF CETP INHIBITION IN HUMAN PLASMA
Blood was obtained from healthy volunteers, recruited from the personnel of Monsanto Company, Saint Louis, MO. Blood was collected in tubes containing EDTA (EDTA plasma pool). The EDTA human plasma pool, previously stored at -20 °C, was thawed at room temperature and centrifuged for 5 minutes to remove any particulate matter. […] Equal volumes (396 µL) of the plasma containing the [^3H]CE-HDL were added by pipette into micro tubes (Titertube®, Bio-Rad laboratories, Hercules, CA). Inhibitor compounds, dissolved as 20-50 mM stock solutions in DMSO, were serially diluted in DMSO (or an alternative solvent in some cases, such as dimethylformamide or ethanol). Four µL of each of the serial dilutions of inhibitor compounds or DMSO alone were then added to each of the tubes containing plasma (396 µL). After mixing, triplicate aliquots (100 µL) from each plasma tube were then transferred to wells of 96-well roundbottomed polystyrene microtiter plates (Corning, Corning, NY). Plates were sealed with plastic film and incubated at 37 °C for 4 hours. "Test" samples contained plasma with dilutions of inhibitor compounds. "Control" samples contained plasma with DMSO diluted to the same concentration as the test samples, but without inhibitor. "Blank" samples were prepared as "control" samples, but were left in the micro tubes at 4 °C for the 4 hour incubation and were then added to the microtiter wells at the end of the incubation period. VLDL and LDL were precipitated by the addition of 10 µL of precipitating reagent (1% (w/v) dextran sulfate (Dextralip50)/0.5 M magnesium chloride, pH 7.4) to all wells. The wells were mixed on a plate mixer and then incubated at ambient temperature for 10 min. The plates were then centrifuged at 1000 x g for 30 min at 10 °C. The supernatants (50 µL) from each well were then transferred to Picoplate™ 96 plate wells (Packard, Meriden. CT) containing Microscint™-40 (Packard, Meriden, CT). The plates were heat-sealed (TopSeal™-P, Packard, Meriden, CT) according to the manufacturer's directions and mixed for 30 min. Radioactivity was measured on a microplate scintillation counter (TopCount. Packard, Meriden, CT). The maximum percentage transfer in the control wells (% transfer) was determined using the following equation: % Transfer = ([dpmblank -dpmcontrol ] × 100)/(dpmblank) [formula]
The percentage of transfer relative to the control (% control) was determined in the wells containing inhibitor compounds was determined as follows: % Control = ([dpmblank -dpmtest ] × 100)/(dpmblank -dpmcontrol) [formula]
IC50 values were then calculated from plots of % control versus concentration of inhibitor compound. […]

`OC(CN(Cc1cccc(OC2CCCC2)c1)c1cccc(Oc2ccc(F)cc2)c1)C(F)(F)F` (stereo not shown) [compound 653]: the IC50 stood at 0.91 µM in test [1] and 38 µM in test [2].

For `OC(CN(Cc1cccc(OC(F)(F)C(F)F)c1)c1cccc(Oc2ccc(OC(F)(F)F)cc2)c1)C(F)(F)F` (stereo not shown) [compound 658], the results for the IC50 in test [1] and in test [2] were 0.44 µM and 30 µM, respectively.

`OC(CN(Cc1ccc(Cl)s1)c1cccc(OC(F)(F)F)c1)C(F)(F)F` (stereo not shown) [Example 321, 3-[[(5-chloro-2-thienyl)methyl][(3-trifluoromethoxy)phenyl]amino]-1,1,1-trifluoro-2-propanol] displayed an IC50 in test [2] of more than 100 µM.

As for `OC(CN(Cc1ccc(Cl)s1)c1cccc(OC(F)(F)F)c1)C(F)(F)F` (stereo not shown) [compound 346], the IC50 in test [1] was 7.7 µM; in test [2], more than 100 µM.

With `N#Cc1ccc(Oc2cccc(N(Cc3cccc(OC(F)(F)C(F)F)c3)CC(O)C(F)(F)F)c2)cc1` (stereo not shown) [compound 657], the IC50 amounted to 1 µM in test [1] and 24 µM in test [2].

Take `OC(CN(Cc1ccc(OC(F)(F)F)cc1)c1cccc(OC(F)(F)F)c1)C(F)(F)F` (stereo not shown) [compound 60]: the IC50 in test [1] came out at 5.5 µM; in test [2], 120 µM.

Take `OC(CN(Cc1cccc(OC(F)(F)C(F)F)c1)c1cccc(OCc2ccccc2)c1)C(F)(F)F` (stereo not shown) [compound 373]: the figures for the IC50 in test [1] and in test [2] were 0.22 µM and 12 µM, respectively.

With `Cc1ccc(Oc2cccc(N(Cc3cccc(OC(F)(F)C(F)F)c3)CC(O)C(F)(F)F)c2)cn1` (stereo not shown) [compound 282], the IC50 in test [1] was determined as 0.84 µM; in test [2], 12 µM.

In turn, `OC(CN(Cc1cccc(OC(F)(F)C(F)F)c1)c1cccc(Oc2ccc(Cl)c(Cl)c2)c1)C(F)(F)F` (stereo not shown) [compound 256] returned an IC50 in test [2] of 7.8 µM.

Regarding `Cc1ccc(Oc2cccc(N(Cc3cccc(SC(F)(F)F)c3)CC(O)C(F)(F)F)c2)cc1` (stereo not shown) [compound 637], the IC50 is 0.47 µM in test [1] and 8 µM in test [2].

Consider `CC(C)Oc1cccc(CN(CC(O)C(F)(F)F)c2cccc(Oc3ccc(F)cc3)c2)c1` (stereo not shown) [compound 647], for which the IC50 in test [1] stood at 0.52 µM; in test [2], 13 µM.

As for `OC(CN(Cc1cccc(OC(F)(F)F)c1)c1ccccc1)C(F)(F)F` (stereo not shown) [compound 73], in test [2], the IC50 amounted to 100 µM.

For `CC(C)c1ccc(Oc2cccc(N(Cc3cccc(OC(F)(F)C(F)F)c3)CC(O)C(F)(F)F)c2)cc1` (stereo not shown) [compound 250], the IC50 was determined as 0.44 µM in test [1] and 31 µM in test [2].

With `CCCc1ccc(Oc2cccc(N(Cc3cccc(OC(F)(F)C(F)F)c3)CC(O)C(F)(F)F)c2)cc1` (stereo not shown) [compound 266], in test [2], the IC50 came out at 21 µM.

Regarding `OC(CN(Cc1cccc(OC(F)(F)C(F)F)c1)c1cccc(Oc2ccc(F)c(F)c2)c1)C(F)(F)F` (stereo not shown) [compound 638], the IC50 came to 0.26 µM in test [1] and 11 µM in test [2].

As for `OC(CN(Cc1cccc(OC(F)(F)C(F)F)c1)c1cccc(Oc2ccc(F)cc2F)c1)C(F)(F)F` (stereo not shown) [compound 639], the IC50 in test [1] is 0.21 µM; in test [2], 5 µM.

For `OC(CN(Cc1cccc(OC(F)(F)C(F)F)c1)c1cccc(N2CCC(Cc3ccccc3)CC2)c1)C(F)(F)F` (stereo not shown) [compound 316], the results for the IC50 in test [1] and in test [2] were 3.1 µM and more than 100 µM, respectively.

In the case of `CCC(C)Oc1cccc(CN(CC(O)C(F)(F)F)c2cccc(Oc3ccc(F)cc3)c2)c1` (stereo not shown) [compound 650], the half-maximal inhibitory concentration (IC50) in test [1] is 0.41 µM; in test [2], 30 µM.

Consider `OC(CN(Cc1ccc(OC(F)(F)F)cc1)c1ccccc1)C(F)(F)F` (stereo not shown) [compound 59], for which the IC50 in test [2] stood at 100 µM.

With `OC(CN(Cc1cccc(SC(F)(F)F)c1)c1cc(Oc2ccc(F)cc2)cc(C(F)(F)F)c1)C(F)(F)F` (stereo not shown) [compound 642], the IC50 is 1.1 µM in test [1] and 50 µM in test [2].

In test [1], `OC(CN(Cc1cccc(OCC2CC2)c1)c1cccc(Oc2ccc(F)cc2)c1)C(F)(F)F` (stereo not shown) [compound 651] returned an IC50 of 0.99 µM.

For the molecule `OC(CN(Cc1cccc(OC(F)(F)C(F)F)c1)c1cccc(OC2CCCC2)c1)C(F)(F)F` (stereo not shown) [compound 509], inhibition in test [1] was half-maximal at 0.42 µM (IC50). This IC50 is about 2.4-fold lower than that of the molecule before.

In test [1], `OC(CN(Cc1ccc(-c2ccccc2)cc1)c1ccc(C(F)(F)F)cc1)C(F)(F)F` (stereo not shown) [compound 144] gave an IC50 of 100 µM. This IC50 is about 240-fold higher than that of the molecule before.

In test [1], `OC(CN(Cc1cccc(OC(F)(F)C(F)F)c1)c1cccc(OCCN2CCCC2)c1)C(F)(F)F` (stereo not shown) [compound 498] registered an IC50 of more than 50 µM.

On to `OC(CN(Cc1cccc(OC(F)(F)C(F)F)c1)c1cccc(N2CCC3(CC2)OCCO3)c1)C(F)(F)F` (stereo not shown) [compound 317], for which the IC50 in test [1] is 3.4 µM; in test [2] it was more than 100 µM.

Molecule `Cc1ccc(N(Cc2cccc(C(F)(F)F)c2)CC(O)C(F)(F)F)cc1` (stereo not shown) [compound 20] yielded an IC50 in test [1] of more than 100 µM.

Molecule `OC(COC(F)(F)C(F)F)CN(Cc1cccc(OC(F)(F)C(F)F)c1)c1cccc(Oc2ccc(C(F)(F)F)cc2)c1` (stereo not shown) [compound 702] yielded an IC50 in test [1] of 35 µM.

Consider `CCCCOC(=O)c1ccc(N(Cc2cccc(OC(F)(F)F)c2)CC(O)C(F)(F)F)cc1` (stereo not shown) [compound 164], for which the IC50 in test [1] is more than 100 µM.

As to `OC(CN(Cc1cccc(C(F)(F)F)c1)c1cc(Oc2ccc(F)cc2)cc(C(F)(F)F)c1)C(F)(F)F` (stereo not shown) [compound 641], the IC50 in test [1] amounted to 11 µM. In other words, the double-digit micromolar range.

As to `Oc1cccc(CN(CC(O)C(F)(F)F)c2cccc(Oc3ccc(F)cc3)c2)c1` (stereo not shown) [compound 635], the IC50 in test [1] turned out to be 80 µM.

In the case of `CCCCOc1cccc(CN(CC(O)C(F)(F)F)c2cccc(Oc3ccc(F)cc3)c2)c1` (stereo not shown) [compound 649], the IC50 was 4.9 µM in test [1] and more than 100 µM in test [2].

Consider `OC(CN(Cc1cccc(OC(F)(F)C(F)F)c1)c1cccc(Oc2cccc(F)c2)c1)C(F)(F)F` (stereo not shown) [compound 240], for which the IC50 in test [1] was found to be 0.27 µM.
